Source: patent publication US20090304692A1, “TRIAZINE COMPOUNDS AS PI3 KINASE AND MTOR INHIBITORS” (Wyeth, priority 2008, published 2009)

Tests used:
PI3K-γ = PI3K-γ (Homo sapiens, UniProt P48736); assay: PI3K-gamma fluorescence polarization assay; conditions: read-out: IC50 PI3Kγ
Human mTOR (FLAG-TOR) = Human mTOR (FLAG-TOR) (Homo sapiens, UniProt P42345); assay: mTOR kinase assay (DELFIA format, purified enzyme); assay type: biochemical; conditions: read-out: IC50 mTOR
PI3K-α = PI3K-α (Homo sapiens, UniProt P42336); assay: PI3K-alpha fluorescence polarization assay; conditions: read-out: IC50 PI3Kα
Sequence of PI3K-α (P42336 whole entry, species assumed): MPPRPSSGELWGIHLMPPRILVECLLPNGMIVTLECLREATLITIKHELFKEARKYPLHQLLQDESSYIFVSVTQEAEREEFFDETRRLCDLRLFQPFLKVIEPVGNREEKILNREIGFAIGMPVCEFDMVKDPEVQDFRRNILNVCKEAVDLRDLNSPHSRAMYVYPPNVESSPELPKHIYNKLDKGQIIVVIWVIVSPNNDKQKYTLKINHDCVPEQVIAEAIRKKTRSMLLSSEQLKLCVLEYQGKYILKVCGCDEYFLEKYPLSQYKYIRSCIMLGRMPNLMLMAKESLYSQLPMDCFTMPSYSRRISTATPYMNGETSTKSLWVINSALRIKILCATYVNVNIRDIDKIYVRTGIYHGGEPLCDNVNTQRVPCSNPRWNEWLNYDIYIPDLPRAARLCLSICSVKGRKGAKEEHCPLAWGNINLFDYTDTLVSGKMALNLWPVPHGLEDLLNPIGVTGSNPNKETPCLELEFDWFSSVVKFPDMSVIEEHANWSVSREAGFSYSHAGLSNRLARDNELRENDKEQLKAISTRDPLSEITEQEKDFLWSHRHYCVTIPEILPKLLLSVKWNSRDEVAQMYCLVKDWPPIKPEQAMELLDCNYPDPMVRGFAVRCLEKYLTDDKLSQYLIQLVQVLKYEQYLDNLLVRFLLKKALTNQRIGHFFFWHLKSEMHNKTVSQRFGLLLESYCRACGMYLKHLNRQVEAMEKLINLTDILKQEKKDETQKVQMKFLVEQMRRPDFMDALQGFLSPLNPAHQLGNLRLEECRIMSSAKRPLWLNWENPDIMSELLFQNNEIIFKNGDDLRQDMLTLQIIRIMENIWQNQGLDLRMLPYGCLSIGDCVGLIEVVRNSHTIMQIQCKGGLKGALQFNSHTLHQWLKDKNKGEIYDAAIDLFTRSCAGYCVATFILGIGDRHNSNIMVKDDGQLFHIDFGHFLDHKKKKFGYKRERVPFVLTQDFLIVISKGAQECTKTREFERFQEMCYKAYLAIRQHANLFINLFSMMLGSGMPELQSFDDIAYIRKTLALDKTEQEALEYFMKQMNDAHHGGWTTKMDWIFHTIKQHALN
Sequence of PI3K-α (P27986 whole entry partner, species assumed): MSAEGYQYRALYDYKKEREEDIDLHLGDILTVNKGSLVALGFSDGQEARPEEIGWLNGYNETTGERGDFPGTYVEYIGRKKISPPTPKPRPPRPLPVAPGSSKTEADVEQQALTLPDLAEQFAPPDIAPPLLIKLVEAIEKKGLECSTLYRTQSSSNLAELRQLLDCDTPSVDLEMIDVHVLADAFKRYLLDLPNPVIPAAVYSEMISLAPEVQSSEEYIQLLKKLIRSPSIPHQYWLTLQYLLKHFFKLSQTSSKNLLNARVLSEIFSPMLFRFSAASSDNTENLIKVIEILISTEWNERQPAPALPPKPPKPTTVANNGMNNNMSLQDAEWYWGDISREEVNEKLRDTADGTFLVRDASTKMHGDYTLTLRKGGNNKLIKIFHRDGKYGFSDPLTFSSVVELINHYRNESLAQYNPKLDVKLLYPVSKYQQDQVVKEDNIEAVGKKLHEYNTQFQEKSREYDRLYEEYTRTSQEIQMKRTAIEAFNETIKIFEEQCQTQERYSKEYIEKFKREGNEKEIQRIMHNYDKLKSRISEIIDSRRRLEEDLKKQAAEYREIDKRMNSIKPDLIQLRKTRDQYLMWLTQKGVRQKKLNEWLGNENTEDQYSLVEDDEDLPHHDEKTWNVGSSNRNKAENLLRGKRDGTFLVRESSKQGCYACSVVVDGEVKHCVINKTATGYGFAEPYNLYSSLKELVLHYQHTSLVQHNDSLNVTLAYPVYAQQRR

Sequence of Human mTOR (FLAG-TOR) (P42345 1360-2549 limits assumed): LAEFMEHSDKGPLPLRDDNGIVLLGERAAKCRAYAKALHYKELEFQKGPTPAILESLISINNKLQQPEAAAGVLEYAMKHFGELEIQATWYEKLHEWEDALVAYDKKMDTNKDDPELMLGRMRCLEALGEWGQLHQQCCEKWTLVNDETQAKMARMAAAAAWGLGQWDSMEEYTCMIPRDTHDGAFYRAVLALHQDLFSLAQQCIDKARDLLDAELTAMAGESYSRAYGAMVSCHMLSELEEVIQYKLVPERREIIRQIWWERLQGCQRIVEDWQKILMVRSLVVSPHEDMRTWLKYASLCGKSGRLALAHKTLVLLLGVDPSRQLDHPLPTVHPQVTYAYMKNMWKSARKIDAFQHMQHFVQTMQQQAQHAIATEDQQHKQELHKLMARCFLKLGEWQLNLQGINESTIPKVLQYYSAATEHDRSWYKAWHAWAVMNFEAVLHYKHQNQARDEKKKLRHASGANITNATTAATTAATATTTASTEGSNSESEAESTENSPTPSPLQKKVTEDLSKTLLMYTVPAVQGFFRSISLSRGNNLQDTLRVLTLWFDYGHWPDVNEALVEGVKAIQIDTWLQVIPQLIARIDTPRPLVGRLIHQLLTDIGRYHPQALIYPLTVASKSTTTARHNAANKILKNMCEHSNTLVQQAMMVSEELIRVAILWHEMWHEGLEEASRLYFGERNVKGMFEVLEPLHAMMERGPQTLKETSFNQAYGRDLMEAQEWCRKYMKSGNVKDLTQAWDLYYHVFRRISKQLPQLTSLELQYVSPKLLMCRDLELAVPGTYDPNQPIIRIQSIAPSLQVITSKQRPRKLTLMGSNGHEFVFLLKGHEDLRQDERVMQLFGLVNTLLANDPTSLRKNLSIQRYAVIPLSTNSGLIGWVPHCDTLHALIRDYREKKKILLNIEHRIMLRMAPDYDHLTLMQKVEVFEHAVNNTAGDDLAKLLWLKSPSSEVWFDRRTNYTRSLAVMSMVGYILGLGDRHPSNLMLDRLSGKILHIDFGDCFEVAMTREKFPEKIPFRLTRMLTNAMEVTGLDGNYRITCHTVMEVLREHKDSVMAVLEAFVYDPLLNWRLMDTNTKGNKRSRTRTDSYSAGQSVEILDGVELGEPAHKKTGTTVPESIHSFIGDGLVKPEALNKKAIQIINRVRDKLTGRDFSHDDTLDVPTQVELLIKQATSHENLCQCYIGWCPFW
Sequence of PI3K-γ (P48736 whole entry, species assumed): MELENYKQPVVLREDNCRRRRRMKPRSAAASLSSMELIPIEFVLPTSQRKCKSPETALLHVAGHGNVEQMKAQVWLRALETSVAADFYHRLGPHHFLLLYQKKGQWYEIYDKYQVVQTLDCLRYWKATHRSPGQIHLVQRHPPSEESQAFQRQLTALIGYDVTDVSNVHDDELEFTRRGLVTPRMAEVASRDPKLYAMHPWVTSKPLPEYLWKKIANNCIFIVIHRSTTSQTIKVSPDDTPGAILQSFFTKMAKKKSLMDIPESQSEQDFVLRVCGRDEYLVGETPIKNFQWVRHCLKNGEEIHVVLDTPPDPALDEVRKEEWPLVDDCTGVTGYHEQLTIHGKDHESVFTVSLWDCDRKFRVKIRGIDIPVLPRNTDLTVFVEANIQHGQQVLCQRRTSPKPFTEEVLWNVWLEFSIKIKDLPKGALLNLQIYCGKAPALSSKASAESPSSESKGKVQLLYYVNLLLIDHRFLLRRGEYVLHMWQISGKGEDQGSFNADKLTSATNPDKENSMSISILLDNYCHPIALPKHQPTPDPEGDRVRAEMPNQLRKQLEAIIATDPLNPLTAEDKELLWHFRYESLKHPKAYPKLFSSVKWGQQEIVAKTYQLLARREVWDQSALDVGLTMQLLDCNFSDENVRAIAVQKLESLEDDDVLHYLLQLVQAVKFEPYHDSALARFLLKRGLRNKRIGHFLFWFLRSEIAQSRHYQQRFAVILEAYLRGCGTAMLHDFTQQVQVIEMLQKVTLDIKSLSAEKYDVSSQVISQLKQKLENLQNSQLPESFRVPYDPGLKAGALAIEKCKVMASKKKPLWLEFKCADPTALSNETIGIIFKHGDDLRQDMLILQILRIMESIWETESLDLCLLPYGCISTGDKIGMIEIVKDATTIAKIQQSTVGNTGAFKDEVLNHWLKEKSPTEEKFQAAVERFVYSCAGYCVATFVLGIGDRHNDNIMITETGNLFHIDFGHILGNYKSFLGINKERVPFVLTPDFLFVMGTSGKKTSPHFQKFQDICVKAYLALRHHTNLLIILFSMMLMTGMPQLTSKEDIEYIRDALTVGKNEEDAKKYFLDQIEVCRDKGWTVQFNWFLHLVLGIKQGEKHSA

Compound | IC50 (PI3K-γ) [nM] | IC50 (Human mTOR (FLAG-TOR)) [nM] | IC50 (PI3K-α) [nM]
O=C(Nc1ccc(C(=O)O)cc1)Nc1ccc(-c2nc(N3CCCOCC3)nc(N3CCOCC3)n2)cc1 [Example 569, 4-[({4-[4-morpholin-4-yl-6-(1,4-oxazepan-4-yl)-1,3,5-triazin-2-yl]phenyl}carbamoyl)amino]benzoic acid] | 375 | 8 | 74.5
Cc1ccc(-c2nc(-c3ccc(NC(=O)Nc4cccc(C(=O)N5CCN(C)CC5)c4)cc3)nc(N3CCOCC3)n2)cc1 [Example 576, 1-{4-[4-(4-methylphenyl)-6-morpholin-4-yl-1,3,5-triazin-2-yl]phenyl}-3-{3-[(4-methylpiperazin-1-yl)carbonyl]phenyl}urea] | 2080 | 140 | 761
COC(=O)c1cccc(NC(=O)Nc2ccc(-c3nc(-c4ccc(C)cc4)nc(N4CCOCC4)n3)cc2)c1 [Example 578, methyl 3-[({4-[4-(4-methylphenyl)-6-morpholin-4-yl-1,3,5-triazin-2-yl]phenyl}carbamoyl)amino]benzoate] | 2510 | 2100 | 2410
Cc1ccc(-c2nc(-c3ccc(NC(=O)Nc4cccc(C(=O)N(C)CCN(C)C)c4)cc3)nc(N3CCOCC3)n2)cc1 [Example 580, N-[2-(dimethylamino)ethyl]-N-methyl-3-[({4-[4-(4-methylphenyl)-6-morpholin-4-yl-1,3,5-triazin-2-yl]phenyl}carbamoyl)amino]benzamide] | 1320 | 100 | 465
CCc1nc(-c2ccc(NC(=O)Nc3cccc(C(=O)OC)c3)cc2)nc(N2CCOCC2)n1 [Example 581, methyl 3-({[4-(4-ethyl-6-morpholin-4-yl-1,3,5-triazin-2-yl)phenyl]carbamoyl}amino)benzoate] | 461 | 37 | 114
COC(=O)c1cccc(NC(=O)Nc2ccc(-c3nc(-c4cccs4)nc(N4CCOCC4)n3)cc2)c1 [Example 582, methyl 3-({[4-(4-morpholin-4-yl-6-thiophen-2-yl-1,3,5-triazin-2-yl)phenyl]carbamoyl}amino)benzoate] | 1090 | 230 | 513
Cc1ccc(-c2nc(-c3ccc(NC(=O)Nc4cccc(C(=O)NCCN(C)C)c4)cc3)nc(N3CCOCC3)n2)cc1 [Example 583, N-[2-(dimethylamino)ethyl]-3-[({4-[4-(4-methylphenyl)-6-morpholin-4-yl-1,3,5-triazin-2-yl]phenyl}carbamoyl)amino]benzamide] | 718 | 48 | 123
CCc1nc(-c2ccc(NC(=O)Nc3cccc(C(=O)O)c3)cc2)nc(N2CCOCC2)n1 [Example 585, 3-({[4-(4-ethyl-6-morpholin-4-yl-1,3,5-triazin-2-yl)phenyl]carbamoyl}amino)benzoic acid] | 131 | 12 | 65
COC(=O)c1cccc(NC(=O)Nc2ccc(-c3nc(-c4ccccc4)nc(N4CCOCC4)n3)cc2)c1 [Example 586, methyl 3-({[4-(4-morpholin-4-yl-6-phenyl-1,3,5-triazin-2-yl)phenyl]carbamoyl}amino)benzoate] | 1250 | 365 | 947
CCc1nc(-c2ccc(NC(=O)Nc3cccc(C(=O)N4CCN(c5ccccn5)CC4)c3)cc2)nc(N2CCOCC2)n1 [Example 587, 1-[4-(4-ethyl-6-morpholin-4-yl-1,3,5-triazin-2-yl)phenyl]-3-{3-[(4-pyridin-2-ylpiperazin-1-yl)carbonyl]phenyl}urea] | 675 | 100 | 350
CCc1nc(-c2ccc(NC(=O)Nc3cccc(C(=O)N(C)CCN(C)C)c3)cc2)nc(N2CCOCC2)n1 [Example 588, N-[2-(dimethylamino)ethyl]-3-({[4-(4-ethyl-6-morpholin-4-yl-1,3,5-triazin-2-yl)phenyl]carbamoyl}amino)-N-methylbenzamide] | 2250 | 54 | 524
CCc1nc(-c2ccc(NC(=O)Nc3cccc(C(=O)N4CCN(C)CC4)c3)cc2)nc(N2CCOCC2)n1 [Example 589, 1-[4-(4-ethyl-6-morpholin-4-yl-1,3,5-triazin-2-yl)phenyl]-3-{3-[(4-methylpiperazin-1-yl)carbonyl]phenyl}urea] | 1620 | 57 | 718
O=C(Nc1ccc(-c2nc(-c3ccccc3)nc(N3CCOCC3)n2)cc1)Nc1cccc(C(=O)O)c1 [Example 590, 3-({[4-(4-morpholin-4-yl-6-phenyl-1,3,5-triazin-2-yl)phenyl]carbamoyl}amino)benzoic acid] | 404 | 49 | 343
COC(=O)c1ccc(NC(=O)Nc2ccc(-c3nc(N4CCCCC4)nc(N4CCOCC4)n3)cc2)cc1 [Example 591, methyl 4-({[4-(4-morpholin-4-yl-6-piperidin-1-yl-1,3,5-triazin-2-yl)phenyl]carbamoyl}amino)benzoate] | 726 | 33 | 250
COC(=O)c1ccc(NC(=O)Nc2ccc(-c3nc(N4CCCC4)nc(N4CCOCC4)n3)cc2)cc1 [Example 594, methyl 4-({[4-(4-morpholin-4-yl-6-pyrrolidin-1-yl-1,3,5-triazin-2-yl)phenyl]carbamoyl}amino)benzoate] | 744 | 22 | 350
O=C(Nc1ccc(C(=O)O)cc1)Nc1ccc(-c2nc(N3CCCC3)nc(N3CCOCC3)n2)cc1 [Example 599, 4-({[4-(4-morpholin-4-yl-6-pyrrolidin-1-yl-1,3,5-triazin-2-yl)phenyl]carbamoyl}amino)benzoic acid] | 190 | 13 | 64.5
O=C(Nc1ccncc1)Nc1ccc(-c2nc(N3CCCC3)nc(N3CCOCC3)n2)cc1 [Example 600, 1-[4-(4-morpholin-4-yl-6-pyrrolidin-1-yl-1,3,5-triazin-2-yl)phenyl]-3-pyridin-4-ylurea] | 162 | 8 | 45.5
C[C@H]1COCCN1c1nc(-c2ccc(NC(=O)Nc3ccc(C(=O)O)cc3)cc2)nc(N2CCOCC2)n1 [Example 619, 4-{[(4-{4-[(3S)-3-methylmorpholin-4-yl]-6-morpholin-4-yl-1,3,5-triazin-2-yl}phenyl)carbamoyl]amino}benzoic acid] | 137 | 1 | 33
C[C@@H]1COCCN1c1nc(-c2ccc(NC(=O)Nc3ccc(C(=O)O)cc3)cc2)nc(N2CCOC[C@@H]2C)n1 [Example 626, 4-{[(4-{4-[(3R)-3-methylmorpholin-4-yl]-6-[(3S)-3-methylmorpholin-4-yl]-1,3,5-triazin-2-yl}phenyl)carbamoyl]amino}benzoic acid] | 208 | 1 | 59
CCCC1CCN(C(=O)c2ccc(NC(=O)Nc3ccc(-c4nc(N5CCOC[C@@H]5C)nc(N5CCOC[C@@H]5C)n4)cc3)cc2)CC1 [Example 636, 1-(4-{4,6-bis[(3S)-3-methylmorpholin-4-yl]-1,3,5-triazin-2-yl}phenyl)-3-{4-[(4-propylpiperidin-1-yl)carbonyl]phenyl}urea] | 468 | 27 | 231
O=C(Nc1ccncc1)Nc1ccc(-c2nc(N3CCOCC3)nc(N3CCN(C45CC6CC(CC(C6)C4)C5)CC3)n2)cc1 [Example 640, 1-{4-[4-morpholin-4-yl-6-(4-tricyclo[3.3.1.13,7]dec-1-ylpiperazin-1-yl)-1,3,5-triazin-2-yl]phenyl}-3-pyridin-4-ylurea] | 795 | 2800 | 345
COC(=O)c1ccc(NC(=O)Nc2ccc(-c3nc(N4CCOCC4)nc(N4CCN(C(=O)N(C)C)CC4)n3)cc2)cc1 [Example 641, methyl 4-{[(4-{4-[4-(dimethylcarbamoyl)piperazin-1-yl]-6-morpholin-4-yl-1,3,5-triazin-2-yl}phenyl)carbamoyl]amino}benzoate] | 276 | 7 | 88.5
CN(C)C(=O)N1CCN(c2nc(-c3ccc(NC(=O)Nc4ccncc4)cc3)nc(N3CCOCC3)n2)CC1 [Example 642, N,N-dimethyl-4-(4-morpholin-4-yl-6-{4-[(pyridin-4-ylcarbamoyl)amino]phenyl}-1,3,5-triazin-2-yl)piperazine-1-carboxamide] | 254 | 1 | 69
CCCC1CCN(C(=O)c2ccc(NC(=O)Nc3ccc(-c4nc(N5CCOCC5)nc(N5CCN(C(=O)N(C)C)CC5)n4)cc3)cc2)CC1 [Example 645, N,N-dimethyl-4-(4-morpholin-4-yl-6-{4-[({4-[(4-propylpiperidin-1-yl)carbonyl]phenyl}carbamoyl)amino]phenyl}-1,3,5-triazin-2-yl)piperazine-1-carboxamide] | 230 | 120 | 105
CCS(=O)(=O)N1CCN(c2nc(-c3ccc(NC(=O)Nc4ccncc4)cc3)nc(N3CCOCC3)n2)CC1 [Example 650, 1-(4-{4-[4-(ethylsulfonyl)piperazin-1-yl]-6-morpholin-4-yl-1,3,5-triazin-2-yl}phenyl)-3-pyridin-4-ylurea] | 104 | 22 | 23.5
CCS(=O)(=O)N1CCN(c2nc(-c3ccc(NC(=O)Nc4ccc(C(=O)OC)cc4)cc3)nc(N3CCOCC3)n2)CC1 [Example 651, methyl 4-{[(4-{4-[4-(ethylsulfonyl)piperazin-1-yl]-6-morpholin-4-yl-1,3,5-triazin-2-yl}phenyl)carbamoyl]amino}benzoate] | 248 | 14 | 71
CCS(=O)(=O)N1CCN(c2nc(-c3ccc(NC(=O)Nc4ccc(C(=O)O)cc4)cc3)nc(N3CCOCC3)n2)CC1 [Example 652, 4-{[(4-{4-[4-(ethylsulfonyl)piperazin-1-yl]-6-morpholin-4-yl-1,3,5-triazin-2-yl}phenyl)carbamoyl]amino}benzoic acid] | 84.5 | 4 | 36
